Experimental data reported in ChEMBL document CHEMBL1123662, “Preparation, receptor binding, and fluorescence properties of hexestrol-fluorophore conjugates: evaluation of site of attachment, fluorophore structure, and fluorophore-ligand spacing” (J Med Chem, 1987).

Assay: Estrogen receptor binding affinity using [3H]estradiol in a competitive radioreceptor binding assay.

Structure (SMILES)	relative binding affinity (RBA)
CCC(c1ccc(O)cc1)C(CC)c1ccc(O)c(N=[N+]=[N-])c1 (stereo unspecified)	69
CCC(c1ccc(O)cc1)C(CC)c1ccc(O)c(CCCN2C(=O)c3cccc([N+](=O)[O-])c3C2=O)c1 (stereo unspecified)	3
CCC(c1ccc(O)cc1)C(CSCCCNc1ccc([N+](=O)[O-])c2nonc12)c1ccc(O)cc1 (stereo unspecified)	4.3
CCC(c1ccc(O)cc1)C(CO)c1ccc(O)cc1 (stereo unspecified)	8.9
CCC(c1ccc(O)cc1)C(CC)c1ccc(O)c(CCCN2C(=O)c3ccccc3C2=O)c1 (stereo unspecified)	5.4
CCC(c1ccc(O)cc1)C(CCOCCOCCCl)c1ccc(O)cc1 (stereo unspecified)	16.6
CCC(c1ccc(O)cc1)C(CCI)c1ccc(O)cc1 (stereo unspecified)	60
CCC(c1ccc(O)cc1)C(CC)c1ccc(O)c(CCCN2C(=O)c3cccc(N)c3C2=O)c1 (stereo unspecified)	7.4
CCC(c1ccc(O)cc1)C(C)c1ccc(O)cc1 (stereo unspecified)	133
CCC(c1ccc(O)cc1)C(CC)c1ccc(O)c(CCCNS(=O)(=O)c2cccc3c(N(C)C)cccc23)c1 (stereo unspecified)	1.3
CCC(c1ccc(O)cc1)C(CC)c1ccc(O)c(CCCO)c1 (stereo unspecified)	12
CCC(c1ccc(O)cc1)C(CI)c1ccc(O)cc1 (stereo unspecified)	172
CCC(c1ccc(O)cc1)C(CC)c1ccc(O)c(CCCNc2ccc([N+](=O)[O-])cc2[N+](=O)[O-])c1 (stereo unspecified)	1
CCCCCOC(=O)CC(c1ccc(O)cc1)C(CC)c1ccc(O)cc1 (stereo unspecified)	4.2
C=CCc1cc(C(CC)C(CC)c2ccc(O)cc2)ccc1O (stereo unspecified)	54
CCC(c1ccc(O)cc1)C(CSCCCCCCCN1C(=O)c2ccccc2C1=O)c1ccc(O)cc1 (stereo unspecified)	1.6
CCC(c1ccc(O)cc1)C(CC)c1ccc(O)c(CCCOC)c1 (stereo unspecified)	13.2
CCC(c1ccc(O)cc1)C(CCO)c1ccc(O)cc1 (stereo unspecified)	16.2

Structure (SMILES)	relative binding affinity (RBA)
CCC(c1ccc(O)cc1)C(CC)c1ccc(O)c(CCCOc2ccc([N+](=O)[O-])cc2[N+](=O)[O-])c1 (stereo unspecified)	1.7
CCC(c1ccc(O)cc1)C(CC)c1ccc(O)c(I)c1 (stereo unspecified)	37
CCC(c1ccc(O)cc1)C(CSCCCCN1C(=O)c2ccccc2C1=O)c1ccc(O)cc1 (stereo unspecified)	3.6
CCC(c1ccc(O)cc1)C(CC)c1ccc(O)c(CCCOCc2ccccc2)c1 (stereo unspecified)	5
CCCCSCCCc1cc(C(CC)C(CC)c2ccc(O)cc2)ccc1O (stereo unspecified)	3.6
CCC(c1ccc(O)cc1)C(C(=O)OC)c1ccc(O)cc1 (stereo unspecified)	69
CCC(c1ccc(O)cc1)C(COCCOCCCl)c1ccc(O)cc1 (stereo unspecified)	6.7
CCCCSCC(c1ccc(O)cc1)C(CC)c1ccc(O)cc1 (stereo unspecified)	61.6
CCC(c1ccc(O)cc1)C(CSCCCCCCNc1ccc([N+](=O)[O-])c2nonc12)c1ccc(O)cc1 (stereo unspecified)	2.9
CCC(c1ccc(O)cc1)C(CC)c1ccc(O)c(CCCNc2ccc([N+](=O)[O-])c3nonc23)c1 (stereo unspecified)	1.5
CCC(c1ccc(O)cc1)C(CC(=O)OC)c1ccc(O)cc1 (stereo unspecified)	20
CCC(c1ccc(O)cc1)C(CSCCNc1ccc([N+](=O)[O-])c2nonc12)c1ccc(O)cc1 (stereo unspecified)	0.85
CCCCCOC(=O)C(c1ccc(O)cc1)C(CC)c1ccc(O)cc1 (stereo unspecified)	39
CCC(c1ccc(O)cc1)C(CSCCCCCCCNS(=O)(=O)c1cccc2c(N(C)C)cccc12)c1ccc(O)cc1 (stereo unspecified)	2.6
CCC(c1ccc(O)cc1)C(CSCCCCCNc1ccc([N+](=O)[O-])c2nonc12)c1ccc(O)cc1 (stereo unspecified)	3.5
CCCCSCCC(c1ccc(O)cc1)C(CC)c1ccc(O)cc1 (stereo unspecified)	23.4
CCC(c1ccc(O)cc1)C(CSCCCCCCCNc1ccc([N+](=O)[O-])c2nonc12)c1ccc(O)cc1 (stereo unspecified)	3.4
CCC(c1ccc(O)cc1)C(CSCCCCNc1ccc([N+](=O)[O-])c2nonc12)c1ccc(O)cc1 (stereo unspecified)	3.9
